Patent US20180071317A1, “USE OF AGENTS THAT ALTER THE PERITUMORAL ENVIRONMENT FOR THE TREATMENT OF CANCER” (SERVICIO ANDALUZ DE SALUD, priority 2011, published 2018)

Key:
[1] = tested on: fibroblasts of tumors produced by lung carcinoma non small cell human (HCC-44) cells; experiment: Marker expression (IHC) in fibroblasts of tumor or peritumoral area, mouse model, HCC-44; type: in vivo; conditions: HCC-44 tumors in mice, 30 mg/kg/day oral, 7 days
Method: Subsequently, the expression in fibroblasts tumoral and peritumoral area of molecular markers associated with progression and maintenance of tumors: TGF-α, TGF-β1, TGF-β2, TGF-β3, MMP-7, MMP-11, MMP-14 were analyzed by immunohistochemistry.
Were injected with 2×10^7 cells tumors (corresponding, in each case to each of the tumor types as specified in Table 9) in 200 of PBS subcutaneously μl. […] Mice were randomized into two groups when the tumors reached a volume of 75 mm^3 One group was treated with non-peptide receptor antagonists NK1 and the other with placebo 200μ1. […] Tumors and samples of non-neoplastic stromal areas remote from the tumor were halved, formalin fixed (4%) and then were included in paraffin blocks for analysis by immunohistochemistry.
The expression on fibroblast cells obtained in the animal model was analyzed by immunohistochemistry, of the above markers: TGF-α, TGF-β1, TGF-β2, TGF-β3, MMP-7, MMP-1 1, MMP-14MP-14. […] This process was realized in mice treated with non-peptide antagonists of NK1 receptor and in untreated animals (control).

[2] = tested on: human primary macrophages (PHM); experiment: Marker expression (immunohistochemistry) in human primary macrophages with SP alone or with NK1 antagonists; type: cell-based; conditions: SP 1 μM + antagonist 1 μM; 48 h
Method: In this sense the next step was to analyze the effect exerted by the treatment with non-peptide NK1 antagonists in human primary macrophages (PHM) obtained and purified from pleural effusion samples obtained from men with chronic age range between 45 and 55 years. Briefly, the pleural fluid from chronic (rich in macrophages) was centrifuged.
After 48 hours of culture, cells were harvested and cellular paraffin blocks were constructed for immunohistochemical analysis (see Example 1). To analyze the expression of markers EGF, MMP-9, VEGF and IL-8 antibodies were used as follows: EGF (rabbit monoclonal antibody, anti-EGF; 07-1432. Merck-Millipore), MMP-9 (polyclonal rabbit anti-MMP-9: SAB4501896, Sigma-Aldrich), VEGF (mouse monoclonal anti-VEGF, GF25-100UG, Merck-Millipore) and TNF-α (mouse monoclonal anti-TNF-α, number MAB 1021 catalogue, obtained from Merck-Millipore). All of these antibodies were used at a concentration of 1/1000. System for labelling with a secondary antibody specific for the primary antibodies obtained from rabbit or mouse was used, as was necessary in each case, both the Envision (Dako). All experiments were carried out sixfold.

[3] = tested on: fibroblasts (PHF) co-cultured with tumor cells of human colon adenocarcinoma (SW-403); experiment: Marker expression (IHC) in PHF co-cultured with SW-403 tumor cells; type: cell-based; conditions: co-culture with SW-403; SP 1 μM + antagonist 1 μM; 48 h
Method: (§1) All cultures were maintained 48 hours, following which the same cells were included in paraffin blocks for subsequent analysis of the expression of different markers by immunohistochemistry (see Example 1). The primary antibodies used to perform immunohistochemical assays and their concentration are detailed in Example 2. All experiments were carried out sixfold. Analyzed markers in fibroblast cells (stromal cells) were: TGF-α, TGF-β1, TGF-β2, TGF-β3, SPARC, MMP-3, MMP-7, MMP-9, MMP-11, MMP-13 and MMP-14.

[4] = tested on: fibroblasts (PHF) co-cultured with tumor cells of human Edwing sarcoma (MHH-ES-1); experiment: Marker expression (IHC) in PHF co-cultured with MHH-ES-1 tumor cells; type: cell-based; conditions: PHF co-cultured with MHH-ES-1 + SP + NK1 antagonist
Method: (§2) All cultures were maintained 48 hours, following which the same cells were included in paraffin blocks for subsequent analysis of the expression of different markers by immunohistochemistry (see Example 1). […] All experiments were carried out sixfold. Analyzed markers in fibroblast cells (stromal cells) were: TGF-α, TGF-β1, TGF-β2, TGF-β3, SPARC, MMP-3, MMP-7, MMP-9, MMP-11, MMP-13 and MMP-14.

[5] = tested on: fibroblasts (PHF) co-cultured with human glioma tumor cells (GAMG); experiment: Marker expression (IHC) in PHF co-cultured with GAMG tumor cells; type: cell-based; conditions: co-culture with GAMG; SP 1 μM + antagonist 1 μM; 48 h;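 note: percentage of PHF fibroblasts positive for each marker, cultured in fresh plasma from a healthy donor, six replicates, with fibroblasts cultured alone as reference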
Method: as §2

[6] = tested on: fibroblasts (PHF) cells co-cultured with human T lymphoma tumor (DERL-7); experiment: Marker expression (IHC) in PHF co-cultured with DERL-7 tumor cells; type: cell-based; conditions: PHF co-cultured with DERL-7 + SP + NK1 antagonist
Method: as §1

[7] = tested on: fibroblasts (PHF) co-cultured with tumor cells of human endometrial carcinoma (AN3-CA); experiment: Marker expression (IHC) in PHF co-cultured with AN3-CA tumor cells; type: cell-based; conditions: co-culture with AN3-CA; SP 1 μM + antagonist 1 μM; 48 h;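 note: cultured in fresh healthy-donor blood plasma with added antibiotic-antimycotic, run in six replicates, values give percent of fibroblasts positive for each marker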
Method: as §2

CC(=O)N1CCN([C@H]2CCN(C(=O)N(C)[C@H](C)c3cc(C(F)(F)F)cc(C(F)(F)F)c3)[C@@H](c3ccc(F)cc3C)C2)CC1 [Casopitant]
0%: fibroblasts expressing MMP-7 [1] | fibroblasts expressing MMP-11 [1] | fibroblasts expressing MMP-14 [1] | fibroblasts expressing TGF-α [1] | fibroblasts expressing TGF-β 1 [1] | fibroblasts expressing TGF-β 2 [1] | fibroblasts expressing TGF-β 3 [1] | macrophages expressing EGF [2] | macrophages expressing MMP-9 [2] | macrophages expressing VEGF [2] | PHF cells expressing MMP-3 [3] | PHF cells expressing MMP-7 [3] | PHF cells expressing MMP-9 [3] | PHF cells expressing MMP-11 [3] | PHF cells expressing MMP-13 [3] | PHF cells expressing MMP-14 [3] | PHF cells expressing SPARC [3] | PHF cells expressing TGF-α [3] | PHF cells expressing TGF-β1 [3] | PHF cells expressing TGF-β2 [3] | PHF cells expressing TGF-β3 [3] | cells expressing MMP-3 [4] | cells expressing MMP-7 [4] | cells expressing MMP-9 [4] | cells expressing MMP-11 [4] | cells expressing MMP-13 [4] | cells expressing MMP-14 [4] | cells expressing SPARC [4] | cells expressing TGF-α [4] | cells expressing TGF-β1 [4] | cells expressing TGF-β2 [4] | cells expressing TGF-β3 [4] | PHF cells expressing MMP-3 [5] | PHF cells expressing MMP-7 [5] | PHF cells expressing MMP-9 [5] | PHF cells expressing MMP-11 [5] | PHF cells expressing MMP-13 [5] | PHF cells expressing MMP-14 [5] | PHF cells expressing SPARC [5] | PHF cells expressing TGF-α [5] | PHF cells expressing TGF-β1 [5] | PHF cells expressing TGF-β2 [5] | PHF cells expressing TGF-β3 [5] | cells expressing MMP-3 [6] | cells expressing MMP-7 [6] | cells expressing MMP-9 [6] | cells expressing MMP-11 [6] | cells expressing MMP-13 [6] | cells expressing MMP-14 [6] | cells expressing SPARC [6] | cells expressing TGF-α [6] | cells expressing TGF-β1 [6] | cells expressing TGF-β2 [6] | cells expressing TGF-β3 [6] | PHF cells expressing MMP-3 [7] | PHF cells expressing MMP-7 [7] | PHF cells expressing MMP-9 [7] | PHF cells expressing MMP-11 [7] | PHF cells expressing MMP-13 [7] | PHF cells expressing MMP-14 [7] | PHF cells expressing SPARC [7] | PHF cells expressing TGF-α [7] | PHF cells expressing TGF-β1 [7] | PHF cells expressing TGF-β2 [7] | PHF cells expressing TGF-β3 [7]
